Measured values from patent US9623109B2, “Methods of killing cells and use of same in prevention and treatment of cancer” (Yissum Research Development Company of the Hebrew …, priority 2008, dated 2017).

Assays:
[1] = target: CKI-delta (Homo sapiens, UniProt P48730); settings: cited from earlier work
[2] = target: CKI-epsilon (Homo sapiens, UniProt P49674); settings: cited from earlier work
[3] = test system: CKIα KO mice; test: Sulindac feeding of CKIα knockout mice (gut phenotype, qRT-PCR, Western, IHC, SA-β-gal); assay type: in vivo, mouse
Description: Tamoxifen (Sigma) was dissolved in Corn Oil (Sigma) to a 20 mg/ml concentration. Mice at 2-3 months were injected subcutaneously with 2 mg Tamoxifen per injection, 5-7 injections every other day, over a 10-14 day period. Mice were sacrificed 4-5 days after the last injection. The colon and part of the small intestine were taken for histology, together with the stomach, liver, pancreas, spleen, kidney, heart and lung. Enterocytes (intestinal epithelial cells) were isolated from most of the small intestine. Enterocytes were used for RNA and protein assays.
All tissues were fixated in 4% formaldehyde for 24 hours, paraffin embedded and sectioned at 5 μm for hematoxylin/eosin (H&E) staining and immunohistochemistry. BrdU (Amersham) was injected intraperitonally at 100 μl/10 g body weight, 2 hours prior to sacrifice. The primary antibodies used were goat anti-CKIα (1:100; Santa Cruz), rabbit anti-Cleaved Caspase-3 (1:100; Cell Signaling), rabbit CM5 (anti-mouse p53) (1:400; Novocastra), mouse anti-β-catenin (1:200; BD transduction), mouse anti-BrdU (1:100; NeoMarkers), rabbit anti-Cyclin D1 (1:125; Lab Vision), mouse anti-p21 (1:50; Santa Cruz), mouse anti-γH2AX (Ser139) (1:100; Upstate), mouse anti-IL-8 (1:125; Bender), rabbit anti-Ki67 (1:300; NeoMarkers). The secondary antibodies used for immunohistochemistry were HRP-polymer anti-Rabbit and anti-Goat (Nichirei), HRP-polymer Mouse on Mouse kit (Nichirei), Mach2 anti mouse-HRP polymer (Biocare) and Mouse-Envision Plus (Dako). HRP was visualized with DAB chromogen (Thermo Scientific) and nuclear counterstain was hemotoxylin (BioOptica). The secondary antibody used for immunofluorescence was goat anti mouse Alexa-488 (1:1000; Molecular Probes). The nuclear counterstain used for immunofluorescence was Hoechst (1.5 μg/ml, Molecular Probes).
For enterocyte isolation, ˜⅔ of the small intestine was washed and minced into small pieces in PBS/1 mM DTT. Intestine was separated into single cells in Ca^2+, Mg^2+ free HBSS containing 10 mM HEPES, 5 mM EDTA and 0.5 mM DTT, at 37° C. for 30 minutes with slow agitation. Lysate was mixed vigorously and cell suspension was centrifuged. Cell pellets were frozen in liquid N2 and stored at −80° C. Protein was extracted from cell pellets in cell lysis buffer containing protease and phosphatase inhibitors. Primary antibodies used in Western blotting were goat-anti CKIα (1:100; Santa Cruz), mouse anti-CKIε (1:250; Santa Cruz), mouse anti-β-catenin (1:2500; BD transduction), rabbit anti-Phospho-β-catenin (Thr41/Ser45) (1:750, Cell Signaling), rabbit CM5 (anti-mouse p53) (1:400; Novocastra), mouse anti-human p53 (1:20; DO-1 hybridoma), rabbit anti-Phospho-p53 (Ser15) (1:1000; Cell Signaling), rabbit anti-Cyclin D1 (1:300; Lab Vision), rabbit anti-Cyclin D2 (1:1000; Santa Cruz), rabbit-anti Bax (1:200; Santa Cruz), mouse anti-MdmX (1:1000; Sigma), goat anti-MdmX (1:200; Santa Cruz), mouse anti-GSK3β (1:2500; BD transduction) rabbit anti-Cleaved Caspase-3 (1:1000; Cell Signaling), rabbit anti-PARP (1:1000; Cell Signaling), mouse anti-p21 (1:200; Santa Cruz), mouse anti-E2F1 (1:500, Santa Cruz), mouse anti-γH2AX (Ser139) (1:1000; Upstate), rabbit anti-Phospho-Chk2 (Thr68) (1:1000; Cell Signaling), rabbit anti-Hsp90 (1:5000; Calbiochem). Secondary antibodies used in Western blotting were HRP-conjugated, goat anti-rabbit, goat anti-mouse and rabbit anti-goat (1:10,000; Jackson). ECL (Amersham) was used for HRP detection. […]

[4] = test system: RKO colorectal carcinoma cells; test: CKIδ/ε or CKIδ shRNA knockdown in RKO colorectal carcinoma cells (DNA damage response); assay type: cell-based; settings: CKIδ depletion, human colorectal carcinoma cell line, FIG. 21
Description: FIG. 21 is a photograph illustrating the DNA damage response (DDR) upon CKIδ/ε ablation.
For enterocyte isolation, ˜⅔ of the small intestine was washed and minced into small pieces in PBS/1 mM DTT. Intestine was separated into single cells in Ca^2+, Mg^2+ free HBSS containing 10 mM HEPES, 5 mM EDTA and 0.5 mM DTT, at 37° C. for 30 minutes with slow agitation. Lysate was mixed vigorously and cell suspension was centrifuged. Cell pellets were frozen in liquid N2 and stored at −80° C. Protein was extracted from cell pellets in cell lysis buffer containing protease and phosphatase inhibitors. […]
RKO and HCT116 cells were cultured in Dulbecco's modified Eagle's medium, supplemented with 10% fetal calf serum (Sigma). […] CKIα expression levels were determined before each experiment to ensure adequate knockdown. […]

Sequence of CKI-delta (P48730 whole entry): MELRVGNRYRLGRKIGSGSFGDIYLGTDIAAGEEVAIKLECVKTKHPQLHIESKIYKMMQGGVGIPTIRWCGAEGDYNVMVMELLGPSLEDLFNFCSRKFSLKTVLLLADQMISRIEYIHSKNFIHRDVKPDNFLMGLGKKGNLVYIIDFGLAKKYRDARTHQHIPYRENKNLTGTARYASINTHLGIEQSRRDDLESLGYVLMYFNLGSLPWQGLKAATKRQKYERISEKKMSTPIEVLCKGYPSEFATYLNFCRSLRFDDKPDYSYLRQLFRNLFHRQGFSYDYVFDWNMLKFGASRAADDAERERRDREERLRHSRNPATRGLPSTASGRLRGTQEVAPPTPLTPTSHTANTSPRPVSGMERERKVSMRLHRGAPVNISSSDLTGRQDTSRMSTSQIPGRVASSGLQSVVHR
Sequence of CKI-epsilon (P49674 whole entry): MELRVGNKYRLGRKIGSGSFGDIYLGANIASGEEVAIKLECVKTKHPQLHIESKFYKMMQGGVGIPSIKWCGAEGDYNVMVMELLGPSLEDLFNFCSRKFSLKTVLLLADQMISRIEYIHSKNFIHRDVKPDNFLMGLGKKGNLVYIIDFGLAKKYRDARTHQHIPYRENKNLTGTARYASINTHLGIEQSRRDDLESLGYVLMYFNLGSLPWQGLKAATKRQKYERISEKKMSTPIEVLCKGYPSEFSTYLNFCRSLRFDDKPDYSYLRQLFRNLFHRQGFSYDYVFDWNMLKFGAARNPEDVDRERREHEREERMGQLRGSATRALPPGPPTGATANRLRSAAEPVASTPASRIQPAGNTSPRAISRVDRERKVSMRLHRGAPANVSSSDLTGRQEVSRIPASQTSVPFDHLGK

COc1cc(OC)c(C=C2C(O)=Nc3ccccc32)c(OC)c1 [IC261]
inhibition of CKI-delta [1]: specific inhibitor | inhibition of CKI-epsilon [2]: specific inhibitor

CC1=C(CC(=O)O)c2cc(F)ccc2/C1=C\c1ccc([S+](C)[O-])cc1 (centres unmarked) [Sulindac]
cell-non autonomous effects of CKIα deficiency ([3]; CKIα KO mice, Sulindac in the drinking water, FIG. 14): prevents | overall phenotype of the gut tissue: severity of dysplasia ([3]; CKIα knockout mice fed Sulindac): greatly reduced | markers for Wnt activation, inflammation, senescence and cell growth arrest, including CyclinD1, Troy, Cox2, SA-β-gal and p21 ([3]; CKIα knockout mice fed Sulindac for the duration of the experiment): significant reduction | p53-independent senescence phenotype (SA β-gal) induced by CKIα deletion ([3]; intestines of CKIα KO mice treated with Sulindac, FIG. 13): reversed | clusters of cells with high grade dysplasia in the villi ([3]; sulindac fed CKIα KO mice, never found in control mutant mice): many clusters of cells were found with high grade dysplasia

CKIδ shRNA: shRNA sequence for CKIδ alone (SEQ ID NO: 5), from Open Biosystems, cloned in pLKO vector (CCGGCCCATCGAAGTGTTGTGTAAACTCGAGTTTACACAACACTTCGATGGGTTTTT)
p53 protein [4]: induced p53 stabilization
